What all share (assay type): biochemical
The target of one test is T1, recombinant human VAP-1 (Homo sapiens, UniProt Q16853).
T1 construct: purchased R&D systems
T1 sequence (Q16853 1-763): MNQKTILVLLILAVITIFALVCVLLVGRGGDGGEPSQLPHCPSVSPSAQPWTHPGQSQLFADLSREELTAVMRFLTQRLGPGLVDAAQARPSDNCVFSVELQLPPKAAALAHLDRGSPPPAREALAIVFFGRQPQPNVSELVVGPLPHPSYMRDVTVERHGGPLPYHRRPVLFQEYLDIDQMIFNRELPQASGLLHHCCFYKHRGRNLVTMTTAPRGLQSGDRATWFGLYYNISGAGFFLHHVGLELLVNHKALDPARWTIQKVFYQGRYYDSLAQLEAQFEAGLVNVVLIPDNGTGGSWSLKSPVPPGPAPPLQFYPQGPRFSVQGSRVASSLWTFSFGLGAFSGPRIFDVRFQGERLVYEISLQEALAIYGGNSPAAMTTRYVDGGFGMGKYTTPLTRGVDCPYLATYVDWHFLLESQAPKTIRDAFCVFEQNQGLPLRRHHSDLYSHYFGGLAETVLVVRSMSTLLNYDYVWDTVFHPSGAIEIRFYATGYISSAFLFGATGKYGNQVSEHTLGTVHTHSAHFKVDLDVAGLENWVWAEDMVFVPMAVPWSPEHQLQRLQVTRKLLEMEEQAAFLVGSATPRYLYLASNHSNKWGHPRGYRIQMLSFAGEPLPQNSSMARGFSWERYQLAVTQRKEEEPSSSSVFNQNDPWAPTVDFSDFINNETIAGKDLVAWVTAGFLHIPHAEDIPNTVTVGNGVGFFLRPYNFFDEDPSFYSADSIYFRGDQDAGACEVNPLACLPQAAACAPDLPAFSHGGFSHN
The test is described as follows: Amplex Red HRP-coupled amine oxidase activity evaluation, recombinant human VAP-1. As to conditions: substrate 1 mM benzylamine; 30 min preincubation at 37° C.; read-out: Inhibitory Activity (IC50, nM) human VAP-1. The procedure, abridged: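 Steps: 8-point 1:3 compound dilutions (final DMSO <1%); 30 min at 37° C with human VAP-1 in 50 mM NaPi pH 7.4; addition of a mix holding 200 uM Amplex Red, 1 mM benzylamine and 1 U/mL HRP; kinetic fluorescence over 1-2 h. Four-parameter logistic IC50.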

Test [1] deals with T2, recombinant human MAO-A (monoamine oxidase-A) (Homo sapiens, UniProt P21397).
T2 construct: purchased Sigma-Aldrich
T2 sequence (P21397 1-527): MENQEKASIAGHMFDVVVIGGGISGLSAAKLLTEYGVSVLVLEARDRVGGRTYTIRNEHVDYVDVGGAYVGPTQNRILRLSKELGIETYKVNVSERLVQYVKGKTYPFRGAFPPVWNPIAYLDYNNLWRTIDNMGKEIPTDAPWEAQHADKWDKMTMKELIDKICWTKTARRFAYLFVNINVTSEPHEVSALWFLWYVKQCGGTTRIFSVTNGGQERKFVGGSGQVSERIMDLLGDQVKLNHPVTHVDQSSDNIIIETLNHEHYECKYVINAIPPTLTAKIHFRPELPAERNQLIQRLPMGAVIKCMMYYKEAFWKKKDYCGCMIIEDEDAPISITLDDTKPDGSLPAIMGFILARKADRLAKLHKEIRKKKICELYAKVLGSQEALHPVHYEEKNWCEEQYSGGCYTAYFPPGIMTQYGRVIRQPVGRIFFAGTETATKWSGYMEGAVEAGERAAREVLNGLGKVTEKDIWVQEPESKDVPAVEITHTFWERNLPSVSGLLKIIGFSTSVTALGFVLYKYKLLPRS
Kind of test: Amplex Red HRP-coupled amine oxidase activity evaluation, recombinant human MAO-A. The conditions noted are these: substrate 0.5 mM tyramine; read-out: Inhibitory Activity (IC50, nM) MAO-A.

Test [2] concerns the target T3, recombinant human MAO-B (monoamine oxidase-B) (Homo sapiens, UniProt P27338).
T3 construct: purchased Sigma-Aldrich
T3 sequence (P27338 1-520): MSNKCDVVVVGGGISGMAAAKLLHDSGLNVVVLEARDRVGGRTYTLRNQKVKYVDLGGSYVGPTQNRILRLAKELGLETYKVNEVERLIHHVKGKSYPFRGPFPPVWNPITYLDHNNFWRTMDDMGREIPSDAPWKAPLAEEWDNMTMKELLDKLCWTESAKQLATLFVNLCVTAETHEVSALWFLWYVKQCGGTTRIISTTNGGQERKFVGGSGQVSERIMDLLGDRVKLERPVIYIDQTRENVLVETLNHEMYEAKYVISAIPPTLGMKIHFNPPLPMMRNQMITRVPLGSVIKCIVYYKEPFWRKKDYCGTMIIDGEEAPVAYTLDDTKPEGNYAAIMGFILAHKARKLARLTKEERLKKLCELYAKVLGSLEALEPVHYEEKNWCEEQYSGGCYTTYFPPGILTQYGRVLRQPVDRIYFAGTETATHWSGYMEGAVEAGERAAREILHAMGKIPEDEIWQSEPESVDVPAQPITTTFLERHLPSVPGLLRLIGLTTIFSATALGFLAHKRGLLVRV
Kind of test: Amplex Red HRP-coupled amine oxidase activity evaluation, recombinant human MAO-B. The conditions noted are these: substrate 1 mM benzylamine; read-out: Inhibitory Activity (IC50, nM) MAO-B.

Test [3] deals with T4, recombinant human DAO (diamine oxidase) (Homo sapiens, UniProt P19801).
T4 construct: purchased R&D systems
T4 sequence (P19801 20-751): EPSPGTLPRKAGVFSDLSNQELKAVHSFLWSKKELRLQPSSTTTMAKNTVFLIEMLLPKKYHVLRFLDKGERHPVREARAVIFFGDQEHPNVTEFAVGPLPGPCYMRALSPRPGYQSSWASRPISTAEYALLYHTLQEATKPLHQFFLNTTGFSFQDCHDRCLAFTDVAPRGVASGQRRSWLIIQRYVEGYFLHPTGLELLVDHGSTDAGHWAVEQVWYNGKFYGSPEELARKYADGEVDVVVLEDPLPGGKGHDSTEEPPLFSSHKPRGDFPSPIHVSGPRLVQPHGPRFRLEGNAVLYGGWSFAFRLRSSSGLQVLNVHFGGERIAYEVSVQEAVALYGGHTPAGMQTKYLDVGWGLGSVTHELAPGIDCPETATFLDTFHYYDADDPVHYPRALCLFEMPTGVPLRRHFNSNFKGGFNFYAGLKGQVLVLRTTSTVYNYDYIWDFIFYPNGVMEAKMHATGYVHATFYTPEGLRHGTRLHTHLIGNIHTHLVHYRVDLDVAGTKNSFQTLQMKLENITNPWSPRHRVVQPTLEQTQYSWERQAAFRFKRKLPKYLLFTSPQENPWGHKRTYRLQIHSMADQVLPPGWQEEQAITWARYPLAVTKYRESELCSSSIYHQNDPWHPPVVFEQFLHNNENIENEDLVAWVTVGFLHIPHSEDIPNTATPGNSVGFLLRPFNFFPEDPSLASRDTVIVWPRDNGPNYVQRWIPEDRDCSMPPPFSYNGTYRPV
The test is described as follows: Amplex Red HRP-coupled amine oxidase activity evaluation, recombinant human DAO.

Setting [4] is: substrate 1 mM putrescine, read-out: Inhibitory Activity (IC50, nM) DAO.

Counter-ions that a name gives are not always drawn. Like-named read-outs stand apart in the source and are kept apart here.

In the case of `CCn1cc(-c2ccc(Cn3nnn(CC(CN)=C(F)F)c3=O)s2)ccc1=O` [Example 44, 5-[5-[[4-[2-(aminomethyl)-3,3-difluoro-allyl]-5-oxo-tetrazol-1-yl]methyl]-2-thienyl]-1-ethyl-pyridin-2-one trifluoroacatate], the IC50 (usually the point on the concentration scale where inhibition reaches its midpoint) was 0.3 nM at recombinant human VAP-1, > 100000 nM in test [1], 10000 nM in test [2] and 762 nM in test [3] (setting [4]).

Take `Cc1cc(-c2ccc(Cn3nnn(CC(CN)=C(F)F)c3=O)s2)cc2c1NC(=O)CC2` [Example 45, 6-[5-[[4-[2-(aminomethyl)-3,3-difluoro-allyl]-5-oxo-tetrazol-1-yl]methyl]-2-thienyl]-8-methyl-3,4-dihydro-1H-quinolin-2-one trifluoroacetate]: the IC50 on recombinant human VAP-1 came out at 0.6 nM; in test [1], 49200 nM; in test [2] it was 7210 nM; in test [3] (setting [4]) it was 1870 nM.

Turning to `CN1C(=O)CCc2cc(-c3ccc(Cn4nnn(CC(CN)=C(F)F)c4=O)s3)ccc21` [Example 46, 6-[5-[[4-[2-(aminomethyl)-3,3-difluoro-allyl]-5-oxo-tetrazol-1-yl]methyl]-2-thienyl]-1-methyl-3,4-dihydroquinolin-2-one trifluoroacetate], the half-inhibitory concentration (IC50) worked out at 0.5 nM at recombinant human VAP-1, 63100 nM in test [1], 6830 nM in test [2] and 1050 nM in test [3] (setting [4]).

For the compound `CCn1cc(-c2ccc(Cn3nnn(CC(CN)=C(F)F)c3=O)s2)cn1` [Example 47, 1-[2-(aminomethyl)-3,3-difluoro-allyl]-4-[[5-(1-ethylpyrazol-4-yl)-2-thienyl]methyl]tetrazol-5-one trifluoroacetate], the IC50 at recombinant human VAP-1 is 0.5 nM; in test [1], > 100000 nM; in test [2], 15100 nM; in test [3] (setting [4]) it was 8170 nM.

Take `NCC(Cn1nnn(-c2cncc(-c3ccc4c(c3)OCO4)c2)c1=O)=C(F)F` [Example 48, 1-[2-(aminomethyl)-3,3-difluoro-allyl]-4-[5-(1,3-benzodioxol-5-yl)-3-pyridyl]tetrazol-5-one trifluoroacetate]: the IC50 on recombinant human VAP-1 came to 2.9 nM; in test [1], 36900 nM; in test [2] it was 4400 nM; in test [3] it was 56 nM.

For `Cc1cc(-c2cncc(-n3nnn(CC(CN)=C(F)F)c3=O)c2)cc2c1NC(=O)CC2` [Example 49, 6-[5-[4-[2-(aminomethyl)-3,3-difluoro-allyl]-5-oxo-tetrazol-1-yl]-3-pyridyl]-8-methyl-3,4-dihydro-1H-quinolin-2-one trifluoroacetate], the IC50 worked out at 0.9 nM at recombinant human VAP-1, 52200 nM in test [1], 7080 nM in test [2] and 3.5 nM in test [3].

On to `CCn1cc(-c2ccc(Cn3ccn(CC(CN)=C(F)F)c3=O)s2)ccc1=O` [Example 50, 5-[5-[[3-[2-(aminomethyl)-3,3-difluoro-allyl]-2-oxo-imidazol-1-yl]methyl]-2-thienyl]-1-ethyl-pyridin-2-one trifluoroacetate], for which the IC50 at recombinant human VAP-1 was > 100 nM; in test [1] it was > 100000 nM; in test [2], > 100000 nM; in test [3] (setting [4]), 8.3 nM.

As to `CN1C(=O)CCc2cc(-c3ccc(Cn4ccn(CC(CN)=C(F)F)c4=O)s3)ccc21` [Example 51, 6-[5-[[3-[2-(aminomethyl)-3,3-difluoro-allyl]-2-oxo-imidazol-1-yl]methyl]-2-thienyl]-1-methyl-3,4-dihydroquinolin-2-one trifluoroacetate], the IC50 on recombinant human VAP-1 is 1.9 nM; in test [1], > 100000 nM; in test [2], 63100 nM; in test [3] (setting [4]), 206 nM.

For `CCn1cc(-c2ccc(Cn3ccn(CC(CN)=C(F)F)c3=O)s2)cn1` [Example 52, 1-[2-(aminomethyl)-3,3-difluoro-allyl]-3-[[5-(1-ethylpyrazol-4-yl)-2-thienyl]methyl]imidazol-2-one trifluoroacetate], the IC50 at recombinant human VAP-1 was > 100 nM; in test [1], > 100000 nM; in test [2], 60200 nM; in test [3] (setting [4]), 192 nM.

On to `NCC(Cn1ccn(Cc2ccc(-c3ccn4ncnc4c3)s2)c1=O)=C(F)F` [Example 53, 1-[2-(aminomethyl)-3,3-difluoro-allyl]-3-[[5-([1,2,4]triazolo[1,5-a]pyridin-7-yl)-2-thienyl]methyl]imidazol-2-one trifluoroacetate], for which the IC50 was > 100 nM on recombinant human VAP-1, > 100000 nM in test [1], 80500 nM in test [2] and 38200 nM in test [3] (setting [4]).
